Assays:
[1] = system: mouse myeloma cell line [GS-NSO]; assay: Growth of GS-NSO myeloma cells in protein-free LS1 medium, shake flasks; assay type: cell-based; conditions: 5 μM tropolone, FIG. 5
Procedure: The LS1 medium additionally contained 2-hydroxypropyl-β-cyclodextrin [HPB; 1.2 g/l] complexed with cholesterol and fatty acids [prepared before addition to LS1 by dissolving HPB ([…]) in water and adding to an equal volume of a supplement containing cholesterol and the fatty acids previously dissolved in absolute alcohol, then agitating for 3 hours prior to centrifugation and filtering].

[2] = system: mouse hybridoma cell line; assay: Growth of mouse hybridoma cells in transferrin-free medium with iron chelators, static 24-well culture, 3 days; assay type: cell-based
Procedure: A mouse hybridoma cell line previously subcultured in a serum-free medium containing 1 μg/ml human transferrin was centrifuged and resuspended in transferrin-free medium twice. […] 100×concentrates of the iron chelators to be tested (8-hydroxyquinoline, tropolone, mimosine, maltol or picolinic acid) were prepared in water and filter sterilised. 10 μl of each iron chelator was dispersed into wells of a 24 well costar plate and then 1 ml of cell suspension added. […] Control wells contained either 10 μl water (negative control) or 10 μl of 100 μg/ml human transferrin solution (positive control). Plates were incubated for 3 days in a humidified incubator under a 5% CO2—95% air atmosphere at 36.5° C. under static conditions. After 3 days samples of dispersed cell suspensions from individual wells were analysed using a Coulter Multisizer to determine cell concentration.

animal cells = assay: Support of growth in agitated animal cell culture at low iron concentration; assay type: cell-based
[3] = system: recombinant GS-myeloma cell lines [mouse NS/O]; assay: Growth and productivity of recombinant GS-myeloma NS/O cell lines in suspension culture; assay type: cell-based; conditions: for PEAK CELL DENSITY: 0.2 mg/l ferric ammonium citrate with 5 μM tropolone or 1 mg/l transferrin
Source text: The efficacy of using tropolone as a transferrin replacement was further investigated using recombinant GS-myeloma cell lines [mouse NS/O] expressing humanised antibodies using the glutamine synthetase (GS) expression system, [Bebbington et al., Bio/Technology, 10, 169-175; European Patent Specification No. 256055].

[4] = system: mouse hybridoma cell line; conditions: increasing concentrations up to 10 mg/l, transferrin-free medium, 3 days, FIG. 2A
Procedure: A mouse hybridoma cell line, previously subcultured in serum free medium containing human transferrin, was centrifuged and resuspended at 1.5×10^5 cells/ml in either transferrin-free or transferrin-containing serum-free medium. […] The flasks were gassed in 5% CO2—95% air atmosphere, sealed and incubated either static or on an orbital reciprocal shaking platform (120 rpm) at 36.5° C. for 3 days. Samples were then removed and cell concentration was determined by haemocytometry.

[5] = system: mouse hybridoma cell line; conditions: 5 μM tropolone
Procedure: Flasks were gassed with an atmosphere of 5% CO2—95% air and incubated on an orbital shaking platform (120 rpm) at 36.5° C. for 3 days.
After 3 days samples were withdrawn from flasks and cell concentration determined using a Coulter multisizer.

[6] = 5 μM tropolone vs 1 mg/l transferrin, 0.2 mg/l ferric ammonium citrate, three cell lines

With “2-hydroxypropyl-β-cyclodextrin [reference compound]” the “performance as carrier for cholesterol and fatty acids (cell growth)” value ([1]; 1.2 g/l HPB in LS1 medium vs bovine serum albumin) was “an effective replacement for bovine serum albumin”.
With CC(=O)CC(C)=O [acetylacetone, reference compound] the “support of cell growth (cell concentration after 3 days)” value ([2]; 100 μM, 0.1 mg/l ferric ammonium citrate, FIG. 1B) was “much less effective”.
With O=C(O)CC(O)(CC(=O)O)C(=O)O [citrate] the “support of growth in agitated cell culture” value (shortened to “support of growth”) (animal cells) was “has failed”.
With O=C(O)[C@H](O)[C@@H](O)[C@H](O)[C@H](O)CO [gluconate] the “support of growth” value (animal cells) was “has failed”.
With O=C(O)c1ccccn1 [picolinic acid, reference compound] the “support of cell growth (cell concentration after 3 days)” value ([2]; 50 μM, 0.1 mg/l ferric ammonium citrate, FIG. 1B) was “much less effective”.
For O=c1cccccc1O [tropolone, 2-hydroxy-2,4,6-cycloheptatrien-1-one], the “support of cell growth (cell concentration after 3 days)” value ([2]; 3 μM tropolone, 0.36 μM iron (0.1 mg/l ferric ammonium citrate), transferrin-free, FIG. 1A) was “as effective as 1 μg/ml of human transferrin at supporting cell growth”, the “support of cell growth (cell concentration after 3 days)” value ([2]; 5 μM, 0.1 mg/l ferric ammonium citrate, FIG. 1B) was “effective at supporting cell growth” and the “growth rates compared with transferrin medium” value [3, 6] was “similar”. For the same compound, the “peak viable cell concentration compared with transferrin medium” value [3, 6] was “similar”, the “PEAK CELL DENSITY” value ([3]; Cell line A) was 1.51e+06 mL⁻¹ and the “PEAK CELL DENSITY” value ([3]; Cell line B) was 1.49e+06 mL⁻¹. The “PEAK CELL DENSITY” value ([3]; Cell line C) was 3.17e+06 mL⁻¹, the “support of cell growth” value ([1]; 0.2 mg/l ferric ammonium citrate, LS1 medium with HPB or BSA carrier) was “able to support the growth of both cultures” and the “support of growth” value (animal cells) was “can support growth”.
In the case of “TRANSFERRIN: human transferrin, natural iron-chelating protein used as positive control”, the “PEAK CELL DENSITY” value ([3]; Cell line A) is reported as 1.3e+06 mL⁻¹, the “PEAK CELL DENSITY” value ([3]; Cell line B) is reported as 1.46e+06 mL⁻¹ and the “PEAK CELL DENSITY” value ([3]; Cell line C) is reported as 2.62e+06 mL⁻¹.
In the case of ferric ammonium citrate, the “effect on cell concentration in static culture” value [4] is reported as “support increasing cell concentrations”, the growth yield ([5]; data not shown) is reported as 3.3×10^7 cells/μg ferric ammonium citrate and the “concentration range giving maximum biomass” value ([5]; shaken 120 rpm, 3 days) is reported as 0.075 to 1 mg/L. For the same compound, the “time to death of myeloma cells (failed to thrive)” value ([3]; 0.2 mg/l ferric ammonium citrate in the absence of either tropolone or transferrin) was ≤ 48 h.
